Measured values as given in US12599560B2, “Lipids and lipid nanoparticle formulations” (Longuide Biopharma Corporation, priority 2023, dated 2026).

How the values were obtained:
[1] = Potential characterization of nanoparticle preparations; assay type: physicochemical
Description: 20 μL of the nucleic acid lipid nanoparticle solution (containing about 0.04 mg/mL mRNA) was taken and added with 780 μL of ultrapure water, used a pipette tip to gently blow and mix, and the potential of the nanopreparation was detected by Malvern particle sizer (model ZEN3700). 27.5 μL nucleic acid lipid nanoparticle solution (containing about 0.04 mg/mL mRNA) was taken and added with 200 μL ultrapure water. A pipette tip was used to gently blow the sample and mix well. The particle size of the nanopreparation was detected by Malvern Dynamic Light Scattering Instrument (Malvern Instruments Ltd., ZEN3700, UK). After the detection, the sample was recovered to an EP tube, and 600 μL of ultrapure water was added, gently blown with a pipette tip, and the potential of the nanopreparation was measured by a Malvern particle size meter.

[2] = Particle size and PDI by dynamic light scattering; assay type: physicochemical; settings: Table 2; for Particle size (nm): LNP formulation with mRNA; for PDI: polydispersity value
How it was run: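 Lipid nanoparticle solution (about 0.04 mg/mL mRNA) diluted in ultrapure water and particle size measured by dynamic light scattering on a Malvern instrument. Sample then further diluted with water for potential measurement.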

[3] = Nucleic acid encapsulation efficiency by fluorescence (RiboGreen); assay type: physicochemical
Description: The nucleic acid encapsulation rate of the nucleic acids lipid nanoparticle formulations obtained in steps 6, 7, and 8 can be determined by fluorescence methods, such as using the Quant-iT™ RiboGreen RNA Quantification Kit (Thermo Fisher Scientific). Take the RiboGreen RNA Quantification Kit as an example: Configure the low-range working solution and mRNA standard solution according to the instructions. Take 3 μL of the nucleic acid lipid nanoparticle solution obtained in step 6, add 297 μL of the Tris-EDTA buffer (TE buffer) provided with the kit, mix well, and then suck up 100 μL of it into the black-bottomed ninety-six-well plate, and then add 100 μL of the RiboGreen low-range detection working solution. Add 100 μL of different concentrations of mRNA standard solution into the black bottom 96-well plate, and add 100 μL of RiboGreen low-range detection working solution. After gently blowing and mixing well, incubate for 5 minutes away from light, and then immediately detect and record the fluorescence signal intensity using a multifunctional enzyme labeling instrument (BMG LABTECH, FLUOstar Omega). The free mRNA content not encapsulated by the lipid nanoparticles was calculated by standard curve fitting and calculation, and then divided by the total amount of mRNA in the wells detected to find the nucleic acid encapsulation rate of this nucleic acid lipid nanoparticle preparation.

[4] = Stability of LNP formulations after storage; assay type: physicochemical; settings: both formulations; physical stability and in vivo delivery efficiency
Description: Excipients and/or cryoprotectants, such as sucrose, can be added to the nucleic acid lipid nanoparticle preparation obtained in step 6 or to the nucleic acid lipid nanoparticle preparation obtained after dialysis in step 7. As an example, 40% sucrose (Aladdin Reagent (Shanghai) Co., Ltd.) was added to the nucleic acid lipid nanoparticle preparation with the volume ratio of 3:1, which is mixed homogeneously to obtain nucleic acid lipid nanoparticle preparation containing 10% sucrose, and further aliquoted into ribozyme-free centrifuge tubes and stored in an ice box, 4° C., −20° C., and/or −80° C. refrigerator for later use. Physicochemical property measurement and in vivo effect validation of the lipid nanoparticles were performed after thawing and returning to room temperature after storage for the indicated time.

[5] = tested on: A549 cells; experiment: Cell transfection assay (D-Luciferin), A549; assay type: cell-based
Description: A549 cells were digested and collected the day before treatment and the cell concentration was adjusted to 2*10^5 cells/mL, 200 μL cell culture medium with a concentration of 2*10^5 cells/mL was added to the 96-well plate, resulting in approximately 4*10^4 cells per well in the 96-well plate. Digested and collected DC2.4 cells and adjusted the cell concentration to 1*10^5 cells/mL, added 200 μL cell culture medium with a concentration of 1*10^5 cells/mL to the 96-well plate, so that the number of cells per well in the 96-well plate is approximately 2*10^4. The cells were incubated in a cell culture incubator (Esco Micro Pte Ltd, Singapore, CLM-170B-8-NF) at 37° C. 5% CO2 for 24 h.
On the day of cell treatment, the medium (Thermo Fisher Scientific) was aspirated from the 96-well plate, 200 μL of PBS was added to each well to rinse the cells and then the PBS (Thermo Fisher Scientific) was removed, and 180 μL of opti-MEM (Thermo Fisher Scientific) was added to each well of the treatment group.
Different volumes of the preparation were taken and diluted by adding the buffer used for the preparation or the buffer used for dialysis, and four dosing concentrations were prepared for each preparation, and 20 μL of the diluted nanopreparation was added to each well of a 96-well plate (3 replicate wells for each concentration), and the dosing concentrations of the preparation were about 50 ng mRNA/well, 100 ng mRNA/well, 200 ng mRNA/well, and 300 ng mRNA/well, respectively.
The 96-well cell culture plate was placed in a cell culture incubator and incubated at 37° C. 5% CO2 for 4 h. The medium was sucked up, and 200 μL of DMEM complete medium was added to each well and incubated for 20 h for detection.
D-Luciferin (Biohub International Trade Co., Ltd.) stock solution (9900 μL of complete medium+100 μL of 25 mg/mL of D-Luciferin stock solution) was diluted with DMEM complete medium at 99:1 to make a working solution at the concentration of 250 μg/mL (25 μg per well).
The 96-well cell culture plate was taken out and the supernatant was removed. Before imaging, the 96-well plate was added with 100 μL of D-Luciferin working solution, incubated at 37° C. for 5 min, and imaged and analyzed by the plate reader.

[6] = formulation No. 1, molar ratio 1.50:20:33.50:45.00
[7] = formulation No. 2, molar ratio 1.50:11.50:38.50:48.50
[8] = molar ratio 1.50:11.50:38.50:48.50, N/P 24
[9] = molar ratio 1.50:20.00:33.50:45.00, N/P 40
[10] = molar ratio 1.71:12.98:45.31:40.00, N/P 40

CCCCCCCCCCCCOC(=O)C(O)CN(CCCN1CCN(CCCN(CC(O)C(=O)OCCCCCCCCCCCC)CC(O)C(=O)OCCCCCCCCCCCC)CC1)CC(O)C(=O)OCCCCCCCCCCCC (stereo not drawn) [Compound L0191]
Zeta potential [1, 6]: 11.30 ± 0.69
Zeta potential [1, 7]: 12.67 ± 0.61
Particle size (nm) [2, 8]: 75.33 ± 0.78 nm
Particle size (nm) [2, 9]: 70.87 ± 0.35 nm
Particle size (nm) [2, 10]: 92.00 ± 0.39 nm
PDI [2, 8]: 0.10 ± 0.01
PDI [2, 9]: 0.17 ± 0.01
PDI [2, 10]: 0.15 ± 0.02
encapsulation efficiency (in words) ([3]; all tested formulations): high
encapsulation efficiency [3, 6]: 96.26%
encapsulation efficiency [3, 7]: 97.92%
stability after storage under different conditions [4]: excellent stability
transfection efficiency (in words) ([5]; all tested formulations, A549 and DC2.4 cells): high
A549 transfection/RLU ([5]; formulation No. 1 (1.50:20:33.50:45.00), 50 ng/well): 61522.00 RLU
A549 transfection/RLU ([5]; formulation No. 1, 100 ng/well): 80557.33 RLU
A549 transfection/RLU ([5]; formulation No. 1, 200 ng/well): 81404.33 RLU
A549 transfection/RLU ([5]; formulation No. 1, 300 ng/well): 84806.33 RLU
A549 transfection/RLU ([5]; formulation No. 2 (1.50:11.50:38.50:48.50), 50 ng/well): 31491.33 RLU
A549 transfection/RLU ([5]; formulation No. 2, 100 ng/well): 54866.67 RLU
A549 transfection/RLU ([5]; formulation No. 2, 200 ng/well): 90775.67 RLU
A549 transfection/RLU ([5]; formulation No. 2, 300 ng/well): 88154.33 RLU
